Experimental data as given in ChEMBL document CHEMBL1201862, “PubChem BioAssay data set” (2004).
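Five concentrations, 48 hours, 96-well plates. GI50 = concentration required for 50% inhibition of growth.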 Active and inactive are the calls of the source. No stated cut-off is given here; in the data, active = GI50 up to about 1.1 µM and inactive = higher.

Tests used:
Experiment in all cases: NCI-60 cell line screen, 48 h
[1] = system: HCT-116
[2] = system: LOX IMVI
[3] = system: CCRF-CEM
[4] = system: EKVX
[5] = system: DLD-1
[6] = system: SK-MEL-2
[7] = system: U-251
[8] = system: M14
[9] = system: SN12C
[10] = system: NCI-H226
[11] = system: SF-539
[12] = system: SF-295
[13] = system: HCT-15
[14] = system: HCC 2998
[15] = system: OVCAR-8
[16] = system: UACC-62
[17] = system: OVCAR-4
[18] = system: K562
[19] = system: SK-MEL-28
[20] = system: RPMI-8226

SMILES: COc1cccc(NC(=O)CC(=O)NN2C(=O)/C(=C/c3ccc(N(CCC#N)CCC#N)cc3)N=C2c2cc([N+](=O)[O-])ccc2Cl)c1
- GI50 [1]: > 100 µM (inactive)
- GI50 [2]: > 100 µM (inactive)
- GI50 [3]: 0.499 µM (active)
- GI50 [4]: 56.1 µM (inactive)
- GI50 [5]: 60.3 µM (inactive)
- GI50 [6]: > 100 µM (inactive)
- GI50 [7]: 75.3 µM (inactive)
- GI50 [8]: > 100 µM (inactive)
- GI50 [9]: > 100 µM (inactive)
- GI50 [10]: 13.6 µM (inactive)
- GI50 [11]: > 100 µM (inactive)
- GI50 [12]: 87.1 µM (inactive)
- GI50 [13]: > 100 µM
- GI50 [14]: 96.8 µM (inactive)
- GI50 [15]: 45.8 µM (inactive)
- GI50 [16]: 64.7 µM (inactive)
- GI50 [17]: 99.1 µM (inactive)
- GI50 [18]: 44.3 µM (inactive)
- GI50 [19]: > 100 µM (inactive)
- GI50 [20]: 30.3 µM (inactive)

SMILES: COc1ccccc1NC(=O)C(=O)C(C(=O)c1ccccc1F)C1OC(=O)c2ccccc21 (stereo not given)
- GI50 [1]: 22 µM (inactive)
- GI50 [2]: 20.8 µM (inactive)
- GI50 [3]: 16.1 µM (inactive)
- GI50 [4]: 27.9 µM (inactive)
- GI50 [5]: 33.3 µM (inactive)
- GI50 [6]: 17.6 µM (inactive)
- GI50 [7]: 14.3 µM (inactive)
- GI50 [8]: 27.5 µM (inactive)
- GI50 [9]: 24.2 µM (inactive)
- GI50 [10]: 15.6 µM (inactive)
- GI50 [11]: 20.8 µM (inactive)
- GI50 [12]: 43.1 µM (inactive)
- GI50 [13]: 25 µM
- GI50 [14]: 14.8 µM (inactive)
- GI50 [15]: 19.9 µM (inactive)
- GI50 [16]: 15.8 µM (inactive)
- GI50 [17]: 28.1 µM (inactive)
- GI50 [18]: 32.7 µM (inactive)
- GI50 [19]: 46.3 µM (inactive)
- GI50 [20]: 20.2 µM (inactive)
